Experimental data taken from patent US11097034B2, “Compositions and methods of modulating endochondral ossification and bone formation” (CASE WESTERN RESERVE UNIVERISTY, priority 2016, dated 2021).

Tests used:
[1] = tested on: bone fracture; assay: Temporal delivery of NGF to bone fracture site; assay type: in vivo, mice; settings: NGF delivery 7-9 days post-fracture compared with 4-6 days
Description: FIGS. 24(A-B) illustrate plots showing the temporal therapeutic delivery of NGF to improve bone fracture healing in mice. (A) Timeline of experimental delivery of NGF to bone fracture site for two different post-fracture time ranges. (B) NGF expression decreases over time post-fracture.

[2] = tested on: unstable tibia fractures; assay: Carbachol injection into tibia fracture callus, μCT; assay type: in vivo, mouse; settings: injected into callus during cartilaginous phase; vs DMEM controls; trend
Protocol: All procedures were performed on adult male wild type (C57BL/6) mice. We created unstable tibia fractures through three point bending and surgically resected nerves proximal to the fracture (either the sciatic nerve, femoral nerve, or both) and compared them to mice who received sham procedures. We injected Carbachol (Cch), a synthetic acetylcholine analogue, into the callus during the cartilaginous phase of healing and compared them to controls that were injected with Dulbecco's Modified Eagle's medium (DMEM) alone. Bone mineral density (BMD) and bone volume were quantified using micro-computed tomography (μCT) analysis. Following μCT the tibiae were processed for histology and stained using the Hall Brunt Quadruple stain (HBQ). The tissue composition was quantified using stereology on an Olympus Cast system.

**Q.** With NGF: nerve growth factor as the compound, how does the “activation of selected bone healing markers” value [1] read?
**A.** more robust activation of selected bone healing markers

**Q.** Which “bone mineral density (BMD), μCT” value [2] does the source give for `C[N+](C)(C)CCOC(N)=O` [Cch, Carbachol] here?
**A.** higher BMD than controls
